In patent publication US20230220021A1, “CYCLIC PEPTIDE INHIBITORS OF PSD-95 AND USES THEREOF” (University of Copenhagen, priority 2020, published 2023):
Where a SMILES comes first, the peptide text is derived from it. [ ]: non-standard residue; d: D form.

Molecular target: T1, PSD-95-PDZ2 (Homo sapiens, UniProt P78352)
T1 construct: 7xHis (N); made in house; host or cells: Escherichia coli B21 pLys (for the mutants, 'as previously described')
Assay: Fluorescence polarization (FP) competition assay against cyclic nNOS TAMRA probe
Type: binding
Conditions: for Relative Ki (Ki mut/Ki WT): FP inhibition constant normalized to WT value; for Ki: cyclic nNOS TAMRA probe, mean of triplicates, N.B. = not binding, read-out: Ki

T1 sequence (P78352 160-246 limits assumed): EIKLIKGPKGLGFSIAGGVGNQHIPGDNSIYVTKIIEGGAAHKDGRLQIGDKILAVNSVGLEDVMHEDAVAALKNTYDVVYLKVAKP

| Structure (SMILES) | fold lowered (decreased) binding affinity of the cyclic peptide (FP competition, relative to unsubstituted cyclic peptide) | Relative Ki (Ki mut/Ki WT) | Ki (FP competition) |
| --- | --- | --- | --- |
| CC[C@H](C)[C@@H]1NC(=O)[C@H]([C@@H](C)O)NC(=O)[C@H](CCCCN)NC(=O)[C@@H]2CCCN2C(=O)[C@H]([C@@H](C)O)NC(=O)CNC(=O)[C@H](CC(=O)O)NC(=O)CNC(=O)[C@H]([C@@H](C)O)NC(=O)[C@H](Cc2ccccc2)NC(=O)[C@H]([C@@H](C)O)NC(=O)[C@H]([C@@H](C)O)NC(=O)[C@H](CCC(=O)O)NC(=O)[C@H](CC(C)C)NC(=O)[C@H](Cc2c[nH]cn2)NC(=O)[C@H]([C@@H](C)O)N(C)C(=O)[C@H](CCC(N)=O)NC(=O)CNC(=O)[C@H]2CCCN2C(=O)[C@H](CCC(N)=O)NC(=O)[C@H]([C@@H](C)O)NC(=O)[C@H](C(C)C)NC(=O)[C@H](CCCNC(=N)N)NC1=O [SEQ ID NO: 84] | 5 fold |  |  |
| CC[C@H](C)[C@@H]1NC(=O)[C@H]([C@@H](C)O)NC(=O)[C@H](CCCCN)NC(=O)[C@@H]2CCCN2C(=O)[C@H]([C@@H](C)O)NC(=O)CNC(=O)[C@H](CC(=O)O)NC(=O)CNC(=O)[C@H]([C@@H](C)O)NC(=O)[C@H](Cc2ccccc2)NC(=O)[C@H]([C@@H](C)O)NC(=O)[C@H]([C@@H](C)O)NC(=O)[C@H](CCC(=O)O)NC(=O)[C@H](CC(C)C)NC(=O)[C@H](Cc2c[nH]cn2)NC(=O)[C@H]([C@@H](C)O)NC(=O)[C@H](CCC(N)=O)NC(=O)CNC(=O)[C@H]2CCCN2C(=O)[C@H](CCC(N)=O)NC(=O)[C@H]([C@@H](C)O)NC(=O)[C@H](Cc2ccccc2)NC(=O)[C@H](CCCNC(=N)N)NC1=O [compound 46] (cyclo(THLETTFTGDGTPKTIRFTQ[dP]GQ)) |  | 0.89 |  |
| CC[C@H](C)[C@@H]1NC(=O)[C@H]([C@@H](C)O)NC(=O)[C@H](CCCCN)N(C)C(=O)[C@@H]2CCCN2C(=O)[C@H]([C@@H](C)O)NC(=O)CNC(=O)[C@H](CC(=O)O)NC(=O)CNC(=O)[C@H]([C@@H](C)O)NC(=O)[C@H](Cc2ccccc2)NC(=O)[C@H]([C@@H](C)O)NC(=O)[C@H]([C@@H](C)O)NC(=O)[C@H](CCC(=O)O)NC(=O)[C@H](CC(C)C)NC(=O)[C@H](Cc2c[nH]cn2)NC(=O)[C@H]([C@@H](C)O)NC(=O)[C@H](CCC(N)=O)NC(=O)CNC(=O)[C@H]2CCCN2C(=O)[C@H](CCC(N)=O)NC(=O)[C@H]([C@@H](C)O)NC(=O)[C@H](C(C)C)NC(=O)[C@H](CCCNC(=N)N)NC1=O [compound 96] |  |  | 0.48 µM |
| CC[C@H](C)[C@@H]1NC(=O)[C@H]([C@@H](C)O)NC(=O)[C@H](CCCCN)NC(=O)[C@@H]2CCCN2C(=O)[C@H]([C@@H](C)O)NC(=O)CNC(=O)[C@H](CC(=O)O)NC(=O)CNC(=O)[C@H]([C@@H](C)O)NC(=O)[C@H](Cc2ccccc2)NC(=O)[C@H]([C@@H](C)O)NC(=O)[C@H]([C@@H](C)O)NC(=O)[C@H](CCC(=O)O)NC(=O)[C@H](CC(C)C)NC(=O)[C@H](Cc2ccccc2)NC(=O)[C@H]([C@@H](C)O)NC(=O)[C@H](CCC(N)=O)NC(=O)CNC(=O)[C@H]2CCCN2C(=O)[C@H](CCC(N)=O)NC(=O)[C@H]([C@@H](C)O)NC(=O)[C@H](C(C)C)NC(=O)[C@H](CCCNC(=N)N)NC1=O [compound 27] (cyclo(TFLETTFTGDGTPKTIRVTQ[dP]GQ)) |  | 0.79 |  |
| CC(C)C[C@@H]1NC(=O)[C@H](Cc2c[nH]cn2)NC(=O)[C@H]([C@@H](C)O)NC(=O)[C@H](CCC(N)=O)NC(=O)CNC(=O)[C@H]2CCCN2C(=O)[C@H](CCC(N)=O)NC(=O)[C@H]([C@@H](C)O)NC(=O)[C@H](C(C)C)NC(=O)[C@H](CCCNC(=N)N)NC(=O)[C@H](Cc2ccc(O)cc2)NC(=O)[C@H]([C@@H](C)O)NC(=O)[C@H](CCCCN)NC(=O)[C@@H]2CCCN2C(=O)[C@H]([C@@H](C)O)NC(=O)CNC(=O)[C@H](CC(=O)O)NC(=O)CNC(=O)[C@H]([C@@H](C)O)NC(=O)[C@H](Cc2ccccc2)NC(=O)[C@H]([C@@H](C)O)NC(=O)[C@H]([C@@H](C)O)NC(=O)[C@H](CCC(=O)O)NC1=O [compound 42] (cyclo(THLETTFTGDGTPKTYRVTQ[dP]GQ)) |  | 1.07 |  |
| CC[C@H](C)[C@@H]1NC(=O)[C@H]([C@@H](C)O)NC(=O)[C@H](CCCCN)NC(=O)[C@@H]2CCCN2C(=O)[C@H]([C@@H](C)O)NC(=O)CNC(=O)[C@H](CC(=O)O)NC(=O)CNC(=O)[C@H](Cc2c[nH]c3ccccc23)NC(=O)[C@H](Cc2ccccc2)NC(=O)[C@H]([C@@H](C)O)NC(=O)[C@H]([C@@H](C)O)NC(=O)[C@H](CCC(=O)O)NC(=O)[C@H](CC(C)C)NC(=O)[C@H](Cc2c[nH]cn2)NC(=O)[C@H]([C@@H](C)O)NC(=O)[C@H](CCC(N)=O)NC(=O)CNC(=O)[C@H]2CCCN2C(=O)[C@H](CCC(N)=O)NC(=O)[C@H]([C@@H](C)O)NC(=O)[C@H](C(C)C)NC(=O)[C@H](CCCNC(=N)N)NC1=O [compound 18] (cyclo(THLETTFWGDGTPKTIRVTQ[dP]GQ)) |  | 0.48 | 0.72 µM |
| CC[C@H](C)[C@@H]1NC(=O)[C@H]([C@@H](C)O)NC(=O)[C@H](CCCCN)NC(=O)[C@@H]2CCCN2C(=O)[C@H](CS)NC(=O)CNC(=O)[C@H](CC(=O)O)NC(=O)CNC(=O)[C@H]([C@@H](C)O)NC(=O)[C@H](Cc2ccccc2)NC(=O)[C@H]([C@@H](C)O)NC(=O)[C@H]([C@@H](C)O)NC(=O)[C@H](CCC(=O)O)NC(=O)[C@H](CC(C)C)NC(=O)[C@H](Cc2c[nH]cn2)NC(=O)[C@H]([C@@H](C)O)NC(=O)[C@H](CCC(N)=O)NC(=O)CNC(=O)[C@H]2CCCN2C(=O)[C@H](CCC(N)=O)NC(=O)[C@H]([C@@H](C)O)NC(=O)[C@H](C(C)C)NC(=O)[C@H](CCCNC(=N)N)NC1=O [compound 38] (cyclo(THLETTFTGDGCPKTIRVTQ[dP]GQ)) |  | 0.91 |  |
| CC[C@H](C)[C@@H]1NC(=O)[C@H]([C@@H](C)O)NC(=O)[C@H](CCCCN)NC(=O)[C@@H]2CCCN2C(=O)[C@H]([C@@H](C)O)NC(=O)CNC(=O)[C@H](CC(=O)O)NC(=O)CNC(=O)[C@H]([C@@H](C)O)NC(=O)[C@H](Cc2ccccc2)NC(=O)[C@H]([C@@H](C)O)NC(=O)[C@H]([C@@H](C)O)NC(=O)[C@H](CCC(=O)O)NC(=O)[C@H](CCCCN)NC(=O)[C@H](Cc2c[nH]cn2)NC(=O)[C@H]([C@@H](C)O)NC(=O)[C@H](CCC(N)=O)NC(=O)CNC(=O)[C@H]2CCCN2C(=O)[C@H](CCC(N)=O)NC(=O)[C@H]([C@@H](C)O)NC(=O)[C@H](C(C)C)NC(=O)[C@H](CCCNC(=N)N)NC1=O [compound 22] (cyclo(THKETTFTGDGTPKTIRVTQ[dP]GQ)) |  | 0.80 |  |
| CC[C@H](C)[C@@H]1NC(=O)[C@H]([C@@H](C)O)NC(=O)[C@H](CCCCN)NC(=O)[C@@H]2CCCN2C(=O)[C@H](CCC(=O)O)NC(=O)[C@H](C)NC(=O)[C@H](CC(=O)O)NC(=O)CNC(=O)[C@H](Cc2c[nH]c3ccccc23)NC(=O)[C@H](Cc2ccccc2)NC(=O)[C@H]([C@@H](C)O)NC(=O)[C@H]([C@@H](C)O)NC(=O)[C@H](CCC(=O)O)NC(=O)[C@H](CC(C)C)NC(=O)[C@H](Cc2c[nH]cn2)NC(=O)[C@H]([C@@H](C)O)NC(=O)[C@H](CCC(N)=O)NC(=O)CNC(=O)[C@H]2CCCN2C(=O)[C@H](CCC(N)=O)NC(=O)[C@H]([C@@H](C)O)NC(=O)[C@H](C(C)C)NC(=O)[C@H](CCCNC(=N)N)NC1=O [compound 134] (cyclo(THLETTFWGDAEPKTIRVTQ[dP]GQ)) |  |  | 0.26 µM |
| CC[C@H](C)[C@@H]1NC(=O)[C@H]([C@@H](C)O)NC(=O)[C@H](CCCCN)NC(=O)[C@@H]2CCCN2C(=O)[C@H]([C@@H](C)O)NC(=O)CNC(=O)[C@H](CC(=O)O)NC(=O)CNC(=O)[C@H]([C@@H](C)O)NC(=O)[C@H](Cc2ccccc2)NC(=O)[C@H]([C@@H](C)O)NC(=O)[C@H]([C@@H](C)O)NC(=O)[C@H](CCC(=O)O)NC(=O)[C@H](CC(C)C)NC(=O)[C@H](Cc2c[nH]cn2)NC(=O)[C@H]([C@@H](C)O)NC(=O)[C@H](CCC(N)=O)NC(=O)CNC(=O)[C@H]2CCCN2C(=O)[C@H](CCC(N)=O)NC(=O)[C@H]([C@@H](C)O)NC(=O)[C@H](C(C)C)NC(=O)[C@H](CCCNC(=N)N)NC1=O [SEQ ID NO: 433] |  |  | 1.5 ± 0.2 µM |
| CC[C@H](C)[C@@H]1NC(=O)[C@H]([C@@H](C)O)NC(=O)[C@H](CCCCN)NC(=O)[C@@H]2CCCN2C(=O)[C@H]([C@@H](C)O)NC(=O)CNC(=O)[C@H](CC(=O)O)NC(=O)CNC(=O)[C@H]([C@@H](C)O)NC(=O)[C@H](Cc2ccccc2)NC(=O)[C@H]([C@@H](C)O)NC(=O)[C@H]([C@@H](C)O)NC(=O)[C@H](CCC(=O)O)NC(=O)[C@H](CC(C)C)NC(=O)[C@H](Cc2c[nH]cn2)NC(=O)[C@H]([C@@H](C)O)NC(=O)[C@H](CCC(N)=O)NC(=O)CNC(=O)[C@H]2CCCN2C(=O)[C@H](CCC(N)=O)NC(=O)[C@H](Cc2ccccc2)NC(=O)[C@H](C(C)C)NC(=O)[C@H](CCCNC(=N)N)NC1=O [compound 48] (cyclo(THLETTFTGDGTPKTIRVFQ[dP]GQ)) |  | 1.05 |  |
| CC(C)C[C@@H]1NC(=O)[C@H](Cc2c[nH]cn2)NC(=O)[C@H]([C@@H](C)O)NC(=O)[C@H](CCC(N)=O)NC(=O)CNC(=O)[C@H]2CCCN2C(=O)[C@H](CCC(N)=O)NC(=O)[C@H]([C@@H](C)O)NC(=O)[C@H](C(C)C)NC(=O)[C@H](CCCNC(=N)N)NC(=O)[C@H](CCCNC(=N)N)NC(=O)[C@H]([C@@H](C)O)NC(=O)[C@H](CCCCN)NC(=O)[C@@H]2CCCN2C(=O)[C@H]([C@@H](C)O)NC(=O)CNC(=O)[C@H](CC(=O)O)NC(=O)CNC(=O)[C@H]([C@@H](C)O)NC(=O)[C@H](Cc2ccccc2)NC(=O)[C@H]([C@@H](C)O)NC(=O)[C@H]([C@@H](C)O)NC(=O)[C@H](CCC(=O)O)NC1=O [compound 41] (cyclo(THLETTFTGDGTPKTRRVTQ[dP]GQ)) |  | 1.17 | 1.76 µM |
| CC[C@H](C)[C@@H]1NC(=O)[C@H]([C@@H](C)O)NC(=O)[C@@H](CCCCN)NC(=O)[C@@H]2CCCN2C(=O)[C@H]([C@@H](C)O)NC(=O)CNC(=O)[C@H](CC(=O)O)NC(=O)CNC(=O)[C@H]([C@@H](C)O)NC(=O)[C@H](Cc2ccccc2)NC(=O)[C@H]([C@@H](C)O)NC(=O)[C@H]([C@@H](C)O)NC(=O)[C@H](CCC(=O)O)NC(=O)[C@H](CC(C)C)NC(=O)[C@H](Cc2c[nH]cn2)NC(=O)[C@H]([C@@H](C)O)NC(=O)[C@H](CCC(N)=O)NC(=O)CNC(=O)[C@H]2CCCN2C(=O)[C@H](CCC(N)=O)NC(=O)[C@H]([C@@H](C)O)NC(=O)[C@H](C(C)C)NC(=O)[C@H](CCCNC(=N)N)NC1=O [compound 123] |  |  | 23.2 µM |
